Columns and labels:
SK-OV-3 = assay: NCI-60 SRB growth inhibition, one-dose and five-dose; type: cell-based; conditions: Homo sapiens; for GI50: SK-OV-3; for inhibition at 10 µM: SK-OV-3, read-out: percent growth inhibition
OVCAR-5 = assay: as above; type: cell-based; conditions: Homo sapiens; for GI50: OVCAR-5; for inhibition at 10 µM: OVCAR-5, read-out: percent growth inhibition
[1] = tested on: Prostate cancer cell lines; assay: NCI-60 SRB growth inhibition, subpanel; type: cell-based, human; conditions: Homo sapiens, read-out: GI50 MG-MID
UO-31 = assay: NCI-60 SRB growth inhibition, one-dose and five-dose; type: cell-based; conditions: Homo sapiens, UO-31
MDA-MB-231/ATCC = assay: as above; type: cell-based; conditions: Homo sapiens, MDA-MB-231
Melanoma cell lines = assay: NCI-60 SRB growth inhibition, subpanel; type: cell-based, human; conditions: Homo sapiens, read-out: GI50 MG-MID
UACC-62 = assay: NCI-60 SRB growth inhibition, one-dose and five-dose; type: cell-based; conditions: Homo sapiens; for GI50: UACC-62; for inhibition at 10 µM: UACC-62, read-out: percent growth inhibition
NSCLC cell lines = assay: NCI-60 SRB growth inhibition, subpanel; type: cell-based, human; conditions: Homo sapiens, read-out: GI50 MG-MID
Colon cancer cell lines = assay: NCI-60 SRB growth inhibition, subpanel; type: cell-based, human; conditions: Homo sapiens, read-out: GI50 MG-MID
CNS cancer cell lines = assay: NCI-60 SRB growth inhibition, subpanel; type: cell-based, human; conditions: Homo sapiens, read-out: GI50 MG-MID
[2] = tested on: Ovarian cancer cell lines; assay: NCI-60 SRB growth inhibition, subpanel; type: cell-based, human; conditions: Homo sapiens, read-out: GI50 MG-MID
NCI-H460 = assay: NCI-60 SRB growth inhibition, one-dose and five-dose; type: cell-based; conditions: Homo sapiens; for GI50: NCI-H460; for inhibition at 10 µM: NCI-H460, read-out: percent growth inhibition
[3] = tested on: WI-38 normal human fibroblast cells; assay: Cytotoxicity towards normal fibroblasts, safety index; type: cell-based; conditions: WI-38 versus cancer cell lines
[4] = as above; type: cell-based, human; conditions: human, WI-38 normal fibroblast cells
DU-145 = assay: NCI-60 SRB growth inhibition, one-dose and five-dose; type: cell-based; conditions: Homo sapiens; for GI50: DU-145; for inhibition at 10 µM: DU-145, read-out: percent growth inhibition
HOP-62 = assay: as above; type: cell-based; conditions: Homo sapiens; for GI50: HOP-62; for inhibition at 10 µM: HOP-62, read-out: percent growth inhibition
Human VEGFR-2 = Human VEGFR-2 (Homo sapiens, UniProt P35968); assay: VEGFR-2 inhibition assay; type: biochemical
Leukaemia cell lines = assay: NCI-60 SRB growth inhibition, subpanel; type: cell-based, human; conditions: Homo sapiens, read-out: GI50 MG-MID
SF-295 = assay: NCI-60 SRB growth inhibition, one-dose and five-dose; type: cell-based; conditions: Homo sapiens; for GI50: SF-295; for inhibition at 10 µM: SF-295, read-out: percent growth inhibition
Renal cancer cell lines = assay: NCI-60 SRB growth inhibition, subpanel; type: cell-based, human; conditions: Homo sapiens, read-out: GI50 MG-MID
SF-539 = assay: NCI-60 SRB growth inhibition, one-dose and five-dose; type: cell-based; conditions: Homo sapiens; for GI50: SF-539; for inhibition at 10 µM: SF-539, read-out: percent growth inhibition
Breast cancer cell lines = assay: NCI-60 SRB growth inhibition, subpanel; type: cell-based, human; conditions: Homo sapiens, read-out: GI50 MG-MID
[5] = tested on: NCI 60-cell line panel (full panel); assay: NCI-60 SRB growth inhibition, full panel mean / MG-MID; type: cell-based, human; conditions: for GI50: Homo sapiens, 60 cell, read-out: Full panel GI50 mean; for Full panel Mean GI %: mean over NCI-60 panel, single dose 10 µM
A549/ATCC = assay: NCI-60 SRB growth inhibition, one-dose and five-dose; type: cell-based; conditions: Homo sapiens; for GI50: A549; for inhibition at 10 µM: A549, read-out: percent growth inhibition
TK-10 = assay: as above; type: cell-based; conditions: Homo sapiens; for GI50: TK-10; for inhibition at 10 µM: TK-10, read-out: percent growth inhibition
BT-549 = assay: as above; type: cell-based; conditions: Homo sapiens; for GI50: BT-549; for inhibition at 10 µM: BT-549, read-out: percent growth inhibition
SW-620 = assay: as above; type: cell-based; conditions: Homo sapiens; for GI50: SW-620; for inhibition at 10 µM: SW-620, read-out: percent growth inhibition
HOP-92 = assay: as above; type: cell-based; conditions: Homo sapiens; for GI50: HOP-92; for inhibition at 10 µM: HOP-92, read-out: percent growth inhibition
HCT-116 = assay: as above; type: cell-based; conditions: Homo sapiens; for GI50: HCT-116, HCT-116, five-dose screening; for inhibition at 10 µM: HCT-116, read-out: percent growth inhibition
SK-MEL-5 = assay: as above; type: cell-based; conditions: Homo sapiens; for GI50: SK-MEL-5; for inhibition at 10 µM: SK-MEL-5, read-out: percent growth inhibition

Sequence of Human VEGFR-2 (P35968 20-1356): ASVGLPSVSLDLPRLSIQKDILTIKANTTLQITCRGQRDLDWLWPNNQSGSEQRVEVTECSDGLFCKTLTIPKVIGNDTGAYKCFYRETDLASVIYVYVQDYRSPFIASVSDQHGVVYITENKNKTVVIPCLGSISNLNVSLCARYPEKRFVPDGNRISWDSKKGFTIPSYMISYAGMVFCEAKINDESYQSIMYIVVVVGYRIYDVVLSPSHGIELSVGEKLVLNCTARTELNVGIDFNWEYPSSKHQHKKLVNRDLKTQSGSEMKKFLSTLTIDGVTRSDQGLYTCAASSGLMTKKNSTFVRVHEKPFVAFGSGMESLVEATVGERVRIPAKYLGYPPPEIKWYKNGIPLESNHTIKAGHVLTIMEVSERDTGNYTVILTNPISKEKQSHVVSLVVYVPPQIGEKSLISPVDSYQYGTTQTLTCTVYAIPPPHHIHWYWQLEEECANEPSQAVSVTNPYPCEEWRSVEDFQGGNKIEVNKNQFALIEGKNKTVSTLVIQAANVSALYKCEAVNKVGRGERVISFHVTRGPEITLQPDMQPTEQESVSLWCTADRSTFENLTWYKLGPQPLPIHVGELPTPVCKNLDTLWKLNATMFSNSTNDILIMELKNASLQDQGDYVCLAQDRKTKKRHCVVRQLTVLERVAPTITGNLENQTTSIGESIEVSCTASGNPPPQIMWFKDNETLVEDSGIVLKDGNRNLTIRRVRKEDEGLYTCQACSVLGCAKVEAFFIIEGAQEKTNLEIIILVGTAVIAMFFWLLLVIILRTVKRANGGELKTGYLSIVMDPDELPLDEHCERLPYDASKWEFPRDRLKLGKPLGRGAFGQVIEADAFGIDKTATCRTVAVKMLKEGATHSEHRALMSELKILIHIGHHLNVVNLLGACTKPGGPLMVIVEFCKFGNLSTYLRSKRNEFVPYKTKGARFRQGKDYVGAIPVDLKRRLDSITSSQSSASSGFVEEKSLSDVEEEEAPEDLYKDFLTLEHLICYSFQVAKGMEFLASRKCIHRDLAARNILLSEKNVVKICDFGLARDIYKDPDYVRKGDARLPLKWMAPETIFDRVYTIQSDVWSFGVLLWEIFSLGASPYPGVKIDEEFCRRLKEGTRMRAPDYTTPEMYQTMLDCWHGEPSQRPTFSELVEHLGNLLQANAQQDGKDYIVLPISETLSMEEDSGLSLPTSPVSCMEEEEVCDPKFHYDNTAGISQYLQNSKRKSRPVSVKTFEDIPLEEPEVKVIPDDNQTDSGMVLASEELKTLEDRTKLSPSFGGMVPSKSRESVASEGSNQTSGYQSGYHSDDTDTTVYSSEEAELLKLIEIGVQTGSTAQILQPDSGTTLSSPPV

`CC(=O)Nc1ccc(/C=C/C(=O)c2cccc(NCc3csc4ccccc34)c2)cc1` [Compound 5i, (E)-N-(4–(3-(3-((benzo[b]thiophen-3-ylmethyl)amino)phenyl)-3-oxoprop-1-en-1-yl)phenyl) acetamide] showed a GI50 (SK-OV-3) of 16.7 µM, an inhibition at 10 µM (SK-OV-3) of 1.94% and a GI50 (OVCAR-5) of 13 µM. The inhibition at 10 µM (OVCAR-5) was 30.4%, the GI50 [1] was 5.01 µM and the GI50 (UO-31) was 5.16 µM. The GI50 (MDA-MB-231/ATCC) was 3.42 µM, the GI50 (Melanoma cell lines) was 8.14 µM and the GI50 (UACC-62) was 6.44 µM. The inhibition at 10 µM (UACC-62) was 76.7%, the GI50 (NSCLC cell lines) was 11.2 µM and the GI50 (Colon cancer cell lines) was 6.66 µM. It also gave a GI50 (CNS cancer cell lines) of 6.12 µM, a GI50 [2] of 8.28 µM and a GI50 (NCI-H460) of 3.84 µM. The inhibition at 10 µM (NCI-H460) was 88.9%, the Safety index [3] was greater than 1 and the GI50 at 48 h [4] was greater than 100 µM. The GI50 (DU-145) was 5.45 µM, the inhibition at 10 µM (DU-145) was 74.7% and the GI50 (HOP-62) was 11.2 µM. The inhibition at 10 µM (HOP-62) was 73.8%, the IC50 (Human VEGFR-2) was 660 ± 18 nM and the GI50 (Leukaemia cell lines) was 2.93 µM. The GI50 (SF-295) was 11.9 µM, the inhibition at 10 µM (SF-295) was 73.1% and the GI50 (Renal cancer cell lines) was 11.3 µM. It also gave a GI50 (SF-539) of 2.74 µM, an inhibition at 10 µM (SF-539) of 171% and a GI50 (Breast cancer cell lines) of 3.79 µM. The GI50 [5] was 7.06 µM, the “Full panel Mean GI %” value [5] was 82.81% and the GI50 (A549/ATCC) was 17 µM. It also gave an inhibition at 10 µM (A549/ATCC) of 45.8%, a GI50 (TK-10) of 17.6 µM and an inhibition at 10 µM (TK-10) of 23.9%. For the same compound, the GI50 (BT-549) was 4.29 µM, the inhibition at 10 µM (BT-549) was 83.6% and the GI50 (SW-620) was 2.6 µM. It also gave an inhibition at 10 µM (SW-620) of 123%, a GI50 (HOP-92) of 18.3 µM and an inhibition at 10 µM (HOP-92) of 12.3%. The GI50 (HCT-116) was 2020 nM, the inhibition at 10 µM (HCT-116) was 180% and the GI50 (SK-MEL-5) was 5.97 µM. For the same compound, the inhibition at 10 µM (SK-MEL-5) was 85.9%.
Work on `CC(=O)Nc1ccc(/C=C/C(=O)c2cccc(NCc3ccc(CO)cc3)c2)cc1` [Compound 5j, (E)-N-(4–(3-(3-((4-(hydroxymethyl)benzyl)amino)phenyl)-3-oxoprop-1-en-1-yl)phenyl) acetamide] yielded a GI50 (SK-OV-3) of 16.3 µM, an inhibition at 10 µM (SK-OV-3) of 4.73% and a GI50 (OVCAR-5) of 12.6 µM. It also gave an inhibition at 10 µM (OVCAR-5) of 74%, a GI50 [1] of 8.67 µM and a GI50 (UO-31) of 10.7 µM. The GI50 (MDA-MB-231/ATCC) was 6.79 µM, the GI50 (Melanoma cell lines) was 11.5 µM and the GI50 (UACC-62) was 10.8 µM. The inhibition at 10 µM (UACC-62) was 156%, the GI50 (NSCLC cell lines) was 13.9 µM and the GI50 (Colon cancer cell lines) was 7.35 µM. The GI50 (CNS cancer cell lines) was 10.1 µM, the GI50 [2] was 12.4 µM and the GI50 (NCI-H460) was 13.4 µM. For the same compound, the inhibition at 10 µM (NCI-H460) was 148%, the Safety index [3] was greater than 1 and the GI50 at 48 h [4] was greater than 100 µM. The GI50 (DU-145) was 5.03 µM, the inhibition at 10 µM (DU-145) was 84.8% and the GI50 (HOP-62) was 18.9 µM. It also gave an inhibition at 10 µM (HOP-62) of 93.7%, an IC50 (Human VEGFR-2) of 820 ± 16 nM and a GI50 (Leukaemia cell lines) of 5.36 µM. For the same compound, the GI50 (SF-295) was 12.4 µM, the inhibition at 10 µM (SF-295) was 79.5% and the GI50 (Renal cancer cell lines) was 13.3 µM. The GI50 (SF-539) was 7.37 µM, the inhibition at 10 µM (SF-539) was 181% and the GI50 (Breast cancer cell lines) was 10.1 µM. The GI50 [5] was 10.3 µM, the “Full panel Mean GI %” value [5] was 120.44% and the GI50 (A549/ATCC) was 17.2 µM. The inhibition at 10 µM (A549/ATCC) was 34.3%, the GI50 (TK-10) was 16.1 µM and the inhibition at 10 µM (TK-10) was 95.1%. For the same compound, the GI50 (BT-549) was 12.1 µM, the inhibition at 10 µM (BT-549) was 119% and the GI50 (SW-620) was 4.27 µM. The inhibition at 10 µM (SW-620) was 157%, the GI50 (HOP-92) was 14.1 µM and the inhibition at 10 µM (HOP-92) was 34.6%. The GI50 (HCT-116) was 3350 nM, the inhibition at 10 µM (HCT-116) was 193% and the GI50 (SK-MEL-5) was 10.2 µM. The inhibition at 10 µM (SK-MEL-5) was 183%.
